Data as given in patent US6355799B1, “Substituted benzene compounds, process for their preparation, and herbicidal and defoliant compositions containing them” (ISK Americas Incorporated, priority 1997, dated 2002).

Columns and labels:
Type in all cases: in vivo
[1] = test system: barnyardgrass (Echinochloa crus-galli, ECHCG); assay: Pre-emerge test, greenhouse herbicide activity screening; details: pre-emerge; for Pre-emerge Herbicidal Activity ECHCG (phytotoxicity rating, scale 0-100): rated 14 days after application, 0 = no damage, 100 = complete death; for phytotoxicity rating ECHCG: 14 days after application, rating scale 0-100
Outline: (§1)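 Applied at 15–1000 g ai/ha from acetone in 187 l/ha spray volume. Post-emergence applications included 0.25% v/v non-ionic surfactant and reached plants sown 8–21 days before. Pre-emergence applications were incorporated by surface watering. Efficacy or crop damage was rated on a 0–100 scale after 14 days.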

[2] = test system: green foxtail (Setaria viridis, SETVI); assay: as above; details: pre-emerge; for Pre-emerge Herbicidal Activity SETVI (phytotoxicity rating, scale 0-100): rated 14 days after application, 0 = no damage, 100 = complete death; for phytotoxicity rating SETVI: 14 days after application, rating scale 0-100
Outline: as §1

[3] = test system: ivyleaf morningglory (Ipomoea hederacea, IPOHE); assay: as above; details: pre-emerge; for Pre-emerge Herbicidal Activity IPOHE (phytotoxicity rating, scale 0-100): rated 14 days after application, 0 = no damage, 100 = complete death; for phytotoxicity rating IPOHE: 14 days after application, rating scale 0-100
Outline: as §1

[4] = test system: johnsongrass (Sorghum halepense, SORHA); assay: as above; details: pre-emerge; for Pre-emerge Herbicidal Activity SORHA (phytotoxicity rating, scale 0-100): rated 14 days after application, 0 = no damage, 100 = complete death; for phytotoxicity rating SORHA: 14 days after application, rating scale 0-100
Outline: as §1

[5] = test system: lambsquarters (Chenopodium album, CHEAL); assay: as above; details: pre-emerge; for Pre-emerge Herbicidal Activity CHEAL (phytotoxicity rating, scale 0-100): rated 14 days after application, 0 = no damage, 100 = complete death; for phytotoxicity rating CHEAL: 14 days after application, rating scale 0-100
Outline: as §1

[6] = test system: large crabgrass (Digitaria sanguinalis, DIGSA); assay: as above; details: pre-emerge; for Pre-emerge Herbicidal Activity DIGSA (phytotoxicity rating, scale 0-100): rated 14 days after application, 0 = no damage, 100 = complete death; for phytotoxicity rating DIGSA: 14 days after application, rating scale 0-100
Outline: as §1

[7] = test system: sicklepod (Cassia obtusifolia, CASOB); assay: as above; details: pre-emerge; for Pre-emerge Herbicidal Activity CASOB (phytotoxicity rating, scale 0-100): rated 14 days after application, 0 = no damage, 100 = complete death; for phytotoxicity rating CASOB: 14 days after application, rating scale 0-100
Outline: as §1

[8] = test system: velvetleaf (Abutilon theophrasti, ABUTH); assay: as above; details: pre-emerge; for Pre-emerge Herbicidal Activity ABUTH (phytotoxicity rating, scale 0-100): rated 14 days after application, 0 = no damage, 100 = complete death; for phytotoxicity rating ABUTH: 14 days after application, rating scale 0-100
Outline: as §1

[9] = test system: barnyardgrass (Echinochloa crus-galli, ECHCG); assay: Post-emerge test, greenhouse herbicide activity screening; details: Echinochloa crus-galli, post-emergence, 336 h, phytotoxicity rating 0-100 (0 no damage, 100 complete death), 14 days after application, read-out: Post-emerge Herbicidal Activity ECHCG; for pest or weed control at 63 g/ha: 63 g ai/ha; for pest or weed control at 250 g/ha: 250 g ai/ha
Outline: as §1

[10] = test system: ivyleaf morningglory (Ipomoea hederacea, IPOHE); assay: as above; details: Ipomoea, post-emergence, 336 h, phytotoxicity rating 0-100 (0 no damage, 100 complete death), 14 days after application, read-out: Post-emerge Herbicidal Activity IPOHE; for pest or weed control at 63 g/ha: 63 g ai/ha; for pest or weed control at 250 g/ha: 250 g ai/ha
Outline: as §1

[11] = test system: johnsongrass (Sorghum halepense, SORHA); assay: as above; details: Sorghum halepense, post-emergence, 336 h, phytotoxicity rating 0-100 (0 no damage, 100 complete death), 14 days after application, read-out: Post-emerge Herbicidal Activity SORHA; for pest or weed control at 63 g/ha: 63 g ai/ha; for pest or weed control at 250 g/ha: 250 g ai/ha
Outline: as §1

[12] = test system: lambsquarters (Chenopodium album, CHEAL); assay: as above; details: Chenopodium album, post-emergence, 336 h, phytotoxicity rating 0-100 (0 no damage, 100 complete death), 14 days after application, read-out: Post-emerge Herbicidal Activity CHEAL; for pest or weed control at 63 g/ha: 63 g ai/ha; for pest or weed control at 250 g/ha: 250 g ai/ha
Outline: as §1

[13] = test system: sicklepod (Cassia obtusifolia, CASOB); assay: as above; details: Senna obtusifolia, post-emergence, 336 h, phytotoxicity rating 0-100 (0 no damage, 100 complete death), 14 days after application, read-out: Post-emerge Herbicidal Activity CASOB
Outline: as §1

[14] = test system: velvetleaf (Abutilon theophrasti, ABUTH); assay: as above; details: Abutilon theophrasti, post-emergence, 336 h, phytotoxicity rating 0-100 (0 no damage, 100 complete death), 14 days after application, read-out: Post-emerge Herbicidal Activity ABUTH; for pest or weed control at 63 g/ha: 63 g ai/ha; for pest or weed control at 250 g/ha: 250 g ai/ha
Outline: as §1

[15] = test system: green foxtail (Setaria viridis, SETVI); assay: as above; details: Setaria viridis, post-emergence, 336 h, phytotoxicity rating 0-100 (0 no damage, 100 complete death), 14 days after application, read-out: Post-emerge Herbicidal Activity SETVI
Outline: as §1

COc1c(Cl)cc(F)c(-n2c(=O)cc(C(F)(F)F)n(C)c2=O)c1N [Compound 1-4, 3-(2-amino-4-chloro-6-fluoro-3-methoxyphenyl)-1-methyl-6-trifluoromethyl-2,4(1H, 3H)-pyrimidinedione]
30: phytotoxicity rating ECHCG ([1]; 62.5 g ai/ha) | phytotoxicity rating SORHA ([4]; 31.3 g ai/ha) | phytotoxicity rating CHEAL ([5]; 3.9 g ai/ha) | phytotoxicity rating DIGSA ([6]; 7.8 g ai/ha) | phytotoxicity rating DIGSA ([6]; 15.6 g ai/ha) | phytotoxicity rating DIGSA ([6]; 31.3 g ai/ha) | phytotoxicity rating CASOB ([7]; 7.8 g ai/ha)
40: phytotoxicity rating SORHA ([4]; 62.5 g ai/ha)
100%: pest or weed control at 63 g/ha [10] | pest or weed control at 250 g/ha [10] | pest or weed control at 250 g/ha ([13]; 250 g ai/ha) | pest or weed control at 63 g/ha [14] | pest or weed control at 250 g/ha [14]
100: Pre-emerge Herbicidal Activity ECHCG (phytotoxicity rating, scale 0-100) ([1]; 63 g ai/ha) | Pre-emerge Herbicidal Activity ECHCG (phytotoxicity rating, scale 0-100) ([1]; 250 g ai/ha) | phytotoxicity rating ECHCG ([1]; 250 g ai/ha) | Pre-emerge Herbicidal Activity SETVI (phytotoxicity rating, scale 0-100) ([2]; 63 g ai/ha) | Pre-emerge Herbicidal Activity SETVI (phytotoxicity rating, scale 0-100) ([2]; 250 g ai/ha) | phytotoxicity rating SETVI ([2]; 62.5 g ai/ha) | phytotoxicity rating SETVI ([2]; 125 g ai/ha) | phytotoxicity rating SETVI ([2]; 250 g ai/ha) | Pre-emerge Herbicidal Activity IPOHE (phytotoxicity rating, scale 0-100) ([3]; 63 g ai/ha) | Pre-emerge Herbicidal Activity IPOHE (phytotoxicity rating, scale 0-100) ([3]; 250 g ai/ha) | phytotoxicity rating IPOHE ([3]; 125 g ai/ha) | phytotoxicity rating IPOHE ([3]; 250 g ai/ha) | Pre-emerge Herbicidal Activity SORHA (phytotoxicity rating, scale 0-100) ([4]; 250 g ai/ha) | phytotoxicity rating SORHA ([4]; 250 g ai/ha) | Pre-emerge Herbicidal Activity CHEAL (phytotoxicity rating, scale 0-100) ([5]; 63 g ai/ha) | Pre-emerge Herbicidal Activity CHEAL (phytotoxicity rating, scale 0-100) ([5]; 250 g ai/ha) | phytotoxicity rating CHEAL ([5]; 15.6 g ai/ha) | phytotoxicity rating CHEAL ([5]; 31.3 g ai/ha) | phytotoxicity rating CHEAL ([5]; 62.5 g ai/ha) | phytotoxicity rating CHEAL ([5]; 125 g ai/ha) | phytotoxicity rating CHEAL ([5]; 250 g ai/ha) | Pre-emerge Herbicidal Activity DIGSA (phytotoxicity rating, scale 0-100) ([6]; 63 g ai/ha) | Pre-emerge Herbicidal Activity DIGSA (phytotoxicity rating, scale 0-100) ([6]; 250 g ai/ha) | phytotoxicity rating DIGSA ([6]; 125 g ai/ha) | phytotoxicity rating DIGSA ([6]; 250 g ai/ha) | Pre-emerge Herbicidal Activity CASOB (phytotoxicity rating, scale 0-100) ([7]; 250 g ai/ha) | phytotoxicity rating CASOB ([7]; 15.6 g ai/ha) | phytotoxicity rating CASOB ([7]; 250 g ai/ha) | Pre-emerge Herbicidal Activity ABUTH (phytotoxicity rating, scale 0-100) ([8]; 63 g ai/ha) | Pre-emerge Herbicidal Activity ABUTH (phytotoxicity rating, scale 0-100) ([8]; 250 g ai/ha) | phytotoxicity rating ABUTH ([8]; 7.8 g ai/ha) | phytotoxicity rating ABUTH ([8]; 15.6 g ai/ha) | phytotoxicity rating ABUTH ([8]; 31.3 g ai/ha) | phytotoxicity rating ABUTH ([8]; 62.5 g ai/ha) | phytotoxicity rating ABUTH ([8]; 125 g ai/ha) | phytotoxicity rating ABUTH ([8]; 250 g ai/ha)
0: phytotoxicity rating ECHCG ([1]; 3.9 g ai/ha) | phytotoxicity rating ECHCG ([1]; 7.8 g ai/ha) | phytotoxicity rating ECHCG ([1]; 15.6 g ai/ha) | phytotoxicity rating SETVI ([2]; 3.9 g ai/ha) | phytotoxicity rating IPOHE ([3]; 3.9 g ai/ha) | phytotoxicity rating IPOHE ([3]; 7.8 g ai/ha) | phytotoxicity rating IPOHE ([3]; 15.6 g ai/ha) | phytotoxicity rating SORHA ([4]; 3.9 g ai/ha) | phytotoxicity rating SORHA ([4]; 7.8 g ai/ha) | phytotoxicity rating SORHA ([4]; 15.6 g ai/ha) | phytotoxicity rating DIGSA ([6]; 3.9 g ai/ha) | phytotoxicity rating CASOB ([7]; 3.9 g ai/ha) | phytotoxicity rating CASOB ([7]; 31.3 g ai/ha)
80: phytotoxicity rating SETVI ([2]; 15.6 g ai/ha) | phytotoxicity rating SETVI ([2]; 31.3 g ai/ha) | phytotoxicity rating CASOB ([7]; 62.5 g ai/ha)
50: phytotoxicity rating IPOHE ([3]; 31.3 g ai/ha)
60: phytotoxicity rating SETVI ([2]; 7.8 g ai/ha) | phytotoxicity rating CHEAL ([5]; 7.8 g ai/ha)
0%: pest or weed control at 63 g/ha [9] | pest or weed control at 63 g/ha [11]
95%: pest or weed control at 250 g/ha [12]
40%: pest or weed control at 250 g/ha [9]
60%: pest or weed control at 63 g/ha [12] | pest or weed control at 63 g/ha ([13]; 63 g ai/ha)
95: phytotoxicity rating ECHCG ([1]; 125 g ai/ha) | phytotoxicity rating SORHA ([4]; 125 g ai/ha) | phytotoxicity rating DIGSA ([6]; 62.5 g ai/ha) | phytotoxicity rating CASOB ([7]; 125 g ai/ha) | phytotoxicity rating ABUTH ([8]; 3.9 g ai/ha)
90: phytotoxicity rating IPOHE ([3]; 62.5 g ai/ha) | Pre-emerge Herbicidal Activity CASOB (phytotoxicity rating, scale 0-100) ([7]; 63 g ai/ha)
70%: pest or weed control at 250 g/ha [11]
10: phytotoxicity rating ECHCG ([1]; 31.3 g ai/ha)
85: Pre-emerge Herbicidal Activity SORHA (phytotoxicity rating, scale 0-100) ([4]; 63 g ai/ha)

COc1c(Cl)cc(F)c(-n2c(=O)cc(C(F)(F)F)n(C)c2=O)c1N(C(C)=O)C(C)=O [Compound 2-2, 3-(4-chloro-2-diacetylamino-6-fluoro-3-methoxyphenyl)-1-methyl-6-trifluoromethyl-2,4(1H, 3H)-pyrimidinedione]
60%: pest or weed control at 63 g/ha [12]
95: Pre-emerge Herbicidal Activity DIGSA (phytotoxicity rating, scale 0-100) ([6]; 250 g ai/ha)
30: Pre-emerge Herbicidal Activity ECHCG (phytotoxicity rating, scale 0-100) ([1]; 63 g ai/ha)
0%: pest or weed control at 63 g/ha [9] | pest or weed control at 63 g/ha ([15]; 63 g ai/ha) | pest or weed control at 63 g/ha [11]
95%: pest or weed control at 63 g/ha [10] | pest or weed control at 63 g/ha [14]
100: Pre-emerge Herbicidal Activity SETVI (phytotoxicity rating, scale 0-100) ([2]; 250 g ai/ha) | Pre-emerge Herbicidal Activity IPOHE (phytotoxicity rating, scale 0-100) ([3]; 250 g ai/ha) | Pre-emerge Herbicidal Activity CHEAL (phytotoxicity rating, scale 0-100) ([5]; 63 g ai/ha) | Pre-emerge Herbicidal Activity CHEAL (phytotoxicity rating, scale 0-100) ([5]; 250 g ai/ha) | Pre-emerge Herbicidal Activity ABUTH (phytotoxicity rating, scale 0-100) ([8]; 63 g ai/ha) | Pre-emerge Herbicidal Activity ABUTH (phytotoxicity rating, scale 0-100) ([8]; 250 g ai/ha)
60: Pre-emerge Herbicidal Activity SORHA (phytotoxicity rating, scale 0-100) ([4]; 63 g ai/ha) | Pre-emerge Herbicidal Activity CASOB (phytotoxicity rating, scale 0-100) ([7]; 63 g ai/ha)
100%: pest or weed control at 250 g/ha [10] | pest or weed control at 250 g/ha [12] | pest or weed control at 250 g/ha [14]
50%: pest or weed control at 250 g/ha [11]
90: Pre-emerge Herbicidal Activity ECHCG (phytotoxicity rating, scale 0-100) ([1]; 250 g ai/ha) | Pre-emerge Herbicidal Activity SETVI (phytotoxicity rating, scale 0-100) ([2]; 63 g ai/ha) | Pre-emerge Herbicidal Activity IPOHE (phytotoxicity rating, scale 0-100) ([3]; 63 g ai/ha) | Pre-emerge Herbicidal Activity SORHA (phytotoxicity rating, scale 0-100) ([4]; 250 g ai/ha) | Pre-emerge Herbicidal Activity DIGSA (phytotoxicity rating, scale 0-100) ([6]; 63 g ai/ha) | Pre-emerge Herbicidal Activity CASOB (phytotoxicity rating, scale 0-100) ([7]; 250 g ai/ha)
40%: pest or weed control at 250 g/ha [9]
30%: pest or weed control at 250 g/ha ([15]; 250 g ai/ha)
